Results reported in article PMC6437697 (Journal of Medicinal Chemistry, 2019).

Columns and labels:
Assay in all cases: KINOMEscan
Type in all cases: binding
Settings in all cases: read-out: % control activity remaining
SIK2 = molecular target: T1, SIK2 (Homo sapiens, UniProt Q9H0K1)
T1 construct: purchased Eurofins DiscoverX KINOMEscan

FES = molecular target: T2, FES (Homo sapiens, UniProt P07332)
T2 construct: purchased Eurofins DiscoverX KINOMEscan

ABL1-nonphosphorylated = molecular target: T3, ABL1-nonphosphorylated (Homo sapiens, UniProt P00519)
T3 construct: purchased Eurofins DiscoverX KINOMEscan
T3 sequence (P00519 whole entry): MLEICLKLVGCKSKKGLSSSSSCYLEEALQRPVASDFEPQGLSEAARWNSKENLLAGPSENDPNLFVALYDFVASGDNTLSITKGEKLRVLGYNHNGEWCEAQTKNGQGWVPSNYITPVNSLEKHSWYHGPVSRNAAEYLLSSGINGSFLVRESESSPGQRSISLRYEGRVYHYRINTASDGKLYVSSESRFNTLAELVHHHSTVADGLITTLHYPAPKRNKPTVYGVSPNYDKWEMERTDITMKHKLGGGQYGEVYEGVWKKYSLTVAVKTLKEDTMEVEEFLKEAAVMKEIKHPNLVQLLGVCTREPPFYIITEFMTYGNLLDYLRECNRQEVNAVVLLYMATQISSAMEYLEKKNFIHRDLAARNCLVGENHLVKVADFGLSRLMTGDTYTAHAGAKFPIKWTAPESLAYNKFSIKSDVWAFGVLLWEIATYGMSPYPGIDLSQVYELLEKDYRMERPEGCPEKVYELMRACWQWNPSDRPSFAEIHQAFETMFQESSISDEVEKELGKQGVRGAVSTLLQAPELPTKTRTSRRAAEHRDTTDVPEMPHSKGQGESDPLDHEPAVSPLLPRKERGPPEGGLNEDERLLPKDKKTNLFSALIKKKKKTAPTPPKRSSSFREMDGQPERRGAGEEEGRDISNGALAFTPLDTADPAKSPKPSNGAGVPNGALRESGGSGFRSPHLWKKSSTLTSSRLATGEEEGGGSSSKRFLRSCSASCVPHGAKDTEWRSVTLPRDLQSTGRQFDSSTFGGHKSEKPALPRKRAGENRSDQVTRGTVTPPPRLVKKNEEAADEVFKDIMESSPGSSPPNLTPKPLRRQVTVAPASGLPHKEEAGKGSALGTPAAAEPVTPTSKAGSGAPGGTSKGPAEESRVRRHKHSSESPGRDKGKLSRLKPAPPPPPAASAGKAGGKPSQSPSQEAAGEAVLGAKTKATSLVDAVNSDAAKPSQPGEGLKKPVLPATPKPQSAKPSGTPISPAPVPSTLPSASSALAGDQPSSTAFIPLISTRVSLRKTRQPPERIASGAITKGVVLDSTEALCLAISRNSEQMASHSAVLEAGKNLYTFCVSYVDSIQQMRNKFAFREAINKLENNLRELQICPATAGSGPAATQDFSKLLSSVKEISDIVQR

RET = molecular target: T4, RET (Homo sapiens, UniProt P07949)
T4 construct: purchased Eurofins DiscoverX KINOMEscan
T4 sequence (P07949 29-1114): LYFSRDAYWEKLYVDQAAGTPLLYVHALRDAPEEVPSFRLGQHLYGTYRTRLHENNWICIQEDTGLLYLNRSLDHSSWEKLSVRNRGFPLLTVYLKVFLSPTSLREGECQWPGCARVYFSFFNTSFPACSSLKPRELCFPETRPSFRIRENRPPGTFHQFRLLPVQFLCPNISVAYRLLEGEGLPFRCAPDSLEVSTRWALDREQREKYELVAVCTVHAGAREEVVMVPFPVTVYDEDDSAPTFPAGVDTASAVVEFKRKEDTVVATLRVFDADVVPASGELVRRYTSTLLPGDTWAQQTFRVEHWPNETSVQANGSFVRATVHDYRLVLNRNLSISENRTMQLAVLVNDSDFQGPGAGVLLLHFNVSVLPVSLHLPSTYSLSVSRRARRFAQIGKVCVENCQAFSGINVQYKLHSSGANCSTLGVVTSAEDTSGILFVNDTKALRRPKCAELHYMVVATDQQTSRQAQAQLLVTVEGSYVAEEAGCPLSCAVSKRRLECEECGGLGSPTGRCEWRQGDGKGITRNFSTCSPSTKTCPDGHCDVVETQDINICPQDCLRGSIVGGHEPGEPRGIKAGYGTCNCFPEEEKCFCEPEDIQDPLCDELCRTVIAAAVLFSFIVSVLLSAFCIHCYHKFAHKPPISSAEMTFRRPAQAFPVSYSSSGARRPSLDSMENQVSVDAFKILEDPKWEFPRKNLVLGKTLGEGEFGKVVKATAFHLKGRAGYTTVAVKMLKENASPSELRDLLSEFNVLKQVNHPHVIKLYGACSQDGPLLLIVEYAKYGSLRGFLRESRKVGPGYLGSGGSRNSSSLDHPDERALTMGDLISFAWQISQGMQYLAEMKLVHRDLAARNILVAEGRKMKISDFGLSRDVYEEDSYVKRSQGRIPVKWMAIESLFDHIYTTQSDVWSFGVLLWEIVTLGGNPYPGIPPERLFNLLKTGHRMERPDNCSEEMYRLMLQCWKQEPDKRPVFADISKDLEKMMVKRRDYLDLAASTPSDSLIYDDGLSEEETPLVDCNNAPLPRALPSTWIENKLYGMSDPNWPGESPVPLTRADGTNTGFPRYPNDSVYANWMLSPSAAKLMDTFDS

PRKG1 = molecular target: T5, PRKG1 (Homo sapiens, UniProt Q13976)
T5 construct: purchased Eurofins DiscoverX KINOMEscan
T5 sequence (Q13976 1-671): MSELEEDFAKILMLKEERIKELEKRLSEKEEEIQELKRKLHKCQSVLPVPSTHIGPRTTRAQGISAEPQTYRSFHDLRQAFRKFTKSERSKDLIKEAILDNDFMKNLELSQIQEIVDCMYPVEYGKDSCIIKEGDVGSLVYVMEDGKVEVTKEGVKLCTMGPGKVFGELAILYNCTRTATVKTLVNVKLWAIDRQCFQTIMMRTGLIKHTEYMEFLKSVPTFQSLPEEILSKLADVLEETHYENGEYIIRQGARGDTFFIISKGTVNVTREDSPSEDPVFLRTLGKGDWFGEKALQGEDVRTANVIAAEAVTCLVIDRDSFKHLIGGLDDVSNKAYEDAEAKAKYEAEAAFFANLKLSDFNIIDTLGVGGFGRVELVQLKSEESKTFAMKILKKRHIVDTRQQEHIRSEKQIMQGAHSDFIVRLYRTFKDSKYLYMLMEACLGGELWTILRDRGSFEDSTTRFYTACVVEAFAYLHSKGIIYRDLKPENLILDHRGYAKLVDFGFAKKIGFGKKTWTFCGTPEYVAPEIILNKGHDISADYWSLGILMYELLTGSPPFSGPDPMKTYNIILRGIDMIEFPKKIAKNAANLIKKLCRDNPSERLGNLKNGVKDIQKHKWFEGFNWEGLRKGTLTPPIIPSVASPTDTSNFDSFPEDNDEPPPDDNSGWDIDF

RAF1 = molecular target: T6, RAF1 (Homo sapiens, UniProt P04049)
T6 construct: purchased Eurofins DiscoverX KINOMEscan
T6 sequence (P04049 whole entry): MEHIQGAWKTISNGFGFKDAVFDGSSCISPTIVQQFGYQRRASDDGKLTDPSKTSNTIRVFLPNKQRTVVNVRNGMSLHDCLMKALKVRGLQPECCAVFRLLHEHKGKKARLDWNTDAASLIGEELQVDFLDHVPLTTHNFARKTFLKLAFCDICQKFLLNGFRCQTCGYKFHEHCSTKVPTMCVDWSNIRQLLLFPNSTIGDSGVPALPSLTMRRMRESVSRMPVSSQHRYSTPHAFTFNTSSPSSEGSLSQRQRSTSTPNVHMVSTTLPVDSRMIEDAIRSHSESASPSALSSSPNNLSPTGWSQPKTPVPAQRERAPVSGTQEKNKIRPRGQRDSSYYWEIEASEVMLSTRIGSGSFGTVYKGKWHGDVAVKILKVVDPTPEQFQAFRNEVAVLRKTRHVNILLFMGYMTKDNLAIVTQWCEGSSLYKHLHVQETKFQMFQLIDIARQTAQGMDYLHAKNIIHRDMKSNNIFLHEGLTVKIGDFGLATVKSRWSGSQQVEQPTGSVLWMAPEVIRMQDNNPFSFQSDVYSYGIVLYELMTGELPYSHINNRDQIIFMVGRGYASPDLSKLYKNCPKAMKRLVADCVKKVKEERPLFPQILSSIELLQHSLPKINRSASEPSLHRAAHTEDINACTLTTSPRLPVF

ARK5 = molecular target: T7, ARK5 (Homo sapiens, UniProt O60285)
T7 construct: purchased Eurofins DiscoverX KINOMEscan
T7 sequence (O60285 1-661): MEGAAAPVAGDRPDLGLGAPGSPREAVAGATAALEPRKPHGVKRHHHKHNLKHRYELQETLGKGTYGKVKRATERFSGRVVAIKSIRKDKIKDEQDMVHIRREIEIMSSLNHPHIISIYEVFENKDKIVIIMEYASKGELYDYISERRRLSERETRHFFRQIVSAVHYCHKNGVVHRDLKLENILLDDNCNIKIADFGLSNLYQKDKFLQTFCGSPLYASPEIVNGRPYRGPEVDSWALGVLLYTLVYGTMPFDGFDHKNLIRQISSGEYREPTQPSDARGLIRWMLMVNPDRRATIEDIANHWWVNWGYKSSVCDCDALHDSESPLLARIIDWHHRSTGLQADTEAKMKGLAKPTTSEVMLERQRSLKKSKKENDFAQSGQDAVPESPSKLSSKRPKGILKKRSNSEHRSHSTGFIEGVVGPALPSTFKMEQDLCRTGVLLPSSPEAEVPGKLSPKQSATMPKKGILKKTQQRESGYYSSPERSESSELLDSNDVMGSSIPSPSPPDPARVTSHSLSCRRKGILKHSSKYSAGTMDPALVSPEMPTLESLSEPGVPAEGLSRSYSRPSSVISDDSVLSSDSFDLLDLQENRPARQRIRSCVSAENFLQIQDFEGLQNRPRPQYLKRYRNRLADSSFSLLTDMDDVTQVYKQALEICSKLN

PAK1 = molecular target: T8, PAK1 (Homo sapiens, UniProt Q13153)
T8 construct: purchased Eurofins DiscoverX KINOMEscan

CAMK1G = molecular target: T9, CAMK1G (Homo sapiens, UniProt Q96NX5)
T9 construct: purchased Eurofins DiscoverX KINOMEscan
T9 sequence (Q96NX5 whole entry): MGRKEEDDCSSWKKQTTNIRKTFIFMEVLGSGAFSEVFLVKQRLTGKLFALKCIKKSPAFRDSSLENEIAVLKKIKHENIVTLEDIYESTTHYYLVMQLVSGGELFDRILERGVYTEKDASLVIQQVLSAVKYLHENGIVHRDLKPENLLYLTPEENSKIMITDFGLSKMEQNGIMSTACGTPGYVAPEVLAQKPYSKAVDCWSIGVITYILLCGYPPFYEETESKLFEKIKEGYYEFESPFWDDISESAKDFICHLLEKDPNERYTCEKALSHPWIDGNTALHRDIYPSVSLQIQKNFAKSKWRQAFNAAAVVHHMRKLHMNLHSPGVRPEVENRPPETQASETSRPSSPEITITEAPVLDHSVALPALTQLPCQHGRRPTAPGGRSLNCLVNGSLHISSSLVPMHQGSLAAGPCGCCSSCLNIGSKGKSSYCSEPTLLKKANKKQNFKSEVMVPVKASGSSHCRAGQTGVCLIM

CSNK1A1L = molecular target: T10, CSNK1A1L (Homo sapiens, UniProt Q8N752)
T10 construct: purchased Eurofins DiscoverX KINOMEscan
T10 sequence (Q8N752 1-337): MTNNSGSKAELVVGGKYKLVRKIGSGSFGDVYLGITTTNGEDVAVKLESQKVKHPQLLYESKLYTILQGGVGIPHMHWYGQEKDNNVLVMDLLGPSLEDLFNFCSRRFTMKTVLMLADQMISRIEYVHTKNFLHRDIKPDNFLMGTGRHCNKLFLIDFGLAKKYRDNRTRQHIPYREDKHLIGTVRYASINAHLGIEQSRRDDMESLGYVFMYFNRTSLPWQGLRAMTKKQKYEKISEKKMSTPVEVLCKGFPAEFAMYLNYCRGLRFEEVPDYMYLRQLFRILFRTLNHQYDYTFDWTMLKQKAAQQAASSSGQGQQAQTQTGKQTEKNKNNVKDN

MEK3 = molecular target: T11, MEK3 (Homo sapiens, UniProt P46734)
T11 construct: purchased Eurofins DiscoverX KINOMEscan
T11 sequence (P46734 1-347): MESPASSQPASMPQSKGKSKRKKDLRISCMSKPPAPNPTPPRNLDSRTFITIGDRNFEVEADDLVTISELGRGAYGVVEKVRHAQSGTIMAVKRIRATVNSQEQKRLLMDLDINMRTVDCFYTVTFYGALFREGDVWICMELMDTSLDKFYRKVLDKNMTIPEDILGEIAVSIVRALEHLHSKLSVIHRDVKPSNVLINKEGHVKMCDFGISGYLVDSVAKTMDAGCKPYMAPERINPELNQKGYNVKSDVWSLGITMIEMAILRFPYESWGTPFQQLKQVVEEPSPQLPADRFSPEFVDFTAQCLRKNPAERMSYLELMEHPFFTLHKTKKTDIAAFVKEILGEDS

T2 sequence (P07332 whole entry): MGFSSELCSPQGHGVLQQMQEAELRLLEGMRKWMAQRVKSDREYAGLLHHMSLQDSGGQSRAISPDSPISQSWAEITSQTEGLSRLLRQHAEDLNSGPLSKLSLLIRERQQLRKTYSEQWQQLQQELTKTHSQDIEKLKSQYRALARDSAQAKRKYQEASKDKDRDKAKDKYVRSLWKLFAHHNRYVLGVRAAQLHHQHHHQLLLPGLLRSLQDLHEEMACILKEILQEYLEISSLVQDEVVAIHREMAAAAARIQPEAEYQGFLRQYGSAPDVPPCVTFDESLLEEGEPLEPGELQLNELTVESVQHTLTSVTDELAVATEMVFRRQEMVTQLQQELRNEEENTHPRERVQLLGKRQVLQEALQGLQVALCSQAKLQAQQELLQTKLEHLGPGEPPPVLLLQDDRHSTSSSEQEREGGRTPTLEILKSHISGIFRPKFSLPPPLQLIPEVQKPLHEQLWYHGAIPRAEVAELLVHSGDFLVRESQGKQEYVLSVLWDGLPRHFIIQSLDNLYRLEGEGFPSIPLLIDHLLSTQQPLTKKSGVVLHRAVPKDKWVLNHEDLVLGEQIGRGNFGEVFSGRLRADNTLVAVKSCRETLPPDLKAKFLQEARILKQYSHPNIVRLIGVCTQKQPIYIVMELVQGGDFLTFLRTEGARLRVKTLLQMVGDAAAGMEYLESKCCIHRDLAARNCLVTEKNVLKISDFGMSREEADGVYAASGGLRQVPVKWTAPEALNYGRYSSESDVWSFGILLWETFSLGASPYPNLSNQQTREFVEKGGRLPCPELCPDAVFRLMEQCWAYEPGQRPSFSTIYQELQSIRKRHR
T1 sequence (Q9H0K1 whole entry): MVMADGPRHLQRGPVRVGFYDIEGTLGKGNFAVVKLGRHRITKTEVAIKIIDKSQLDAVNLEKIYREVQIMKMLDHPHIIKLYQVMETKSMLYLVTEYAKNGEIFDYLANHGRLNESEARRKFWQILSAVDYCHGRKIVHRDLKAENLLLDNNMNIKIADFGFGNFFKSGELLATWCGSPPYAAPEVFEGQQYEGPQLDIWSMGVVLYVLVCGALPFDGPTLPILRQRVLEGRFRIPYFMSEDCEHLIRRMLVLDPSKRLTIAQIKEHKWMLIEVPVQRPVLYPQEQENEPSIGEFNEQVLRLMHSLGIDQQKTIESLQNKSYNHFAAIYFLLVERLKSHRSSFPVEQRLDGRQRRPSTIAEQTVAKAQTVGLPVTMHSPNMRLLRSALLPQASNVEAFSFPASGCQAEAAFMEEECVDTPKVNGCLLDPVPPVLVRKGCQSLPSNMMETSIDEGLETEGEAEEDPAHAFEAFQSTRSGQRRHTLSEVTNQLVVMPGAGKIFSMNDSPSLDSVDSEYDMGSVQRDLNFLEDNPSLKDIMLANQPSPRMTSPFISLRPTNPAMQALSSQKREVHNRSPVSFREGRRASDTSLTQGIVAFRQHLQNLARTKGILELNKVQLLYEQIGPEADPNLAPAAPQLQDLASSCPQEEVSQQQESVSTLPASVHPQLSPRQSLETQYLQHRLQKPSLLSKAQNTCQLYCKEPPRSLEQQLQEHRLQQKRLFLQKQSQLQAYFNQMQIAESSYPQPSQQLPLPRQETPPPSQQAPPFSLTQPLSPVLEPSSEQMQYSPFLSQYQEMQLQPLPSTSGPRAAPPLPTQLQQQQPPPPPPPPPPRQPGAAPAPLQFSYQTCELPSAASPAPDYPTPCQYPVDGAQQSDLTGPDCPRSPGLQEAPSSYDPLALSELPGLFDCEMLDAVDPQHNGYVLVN

Compound	remaining binding at 1 µM (SIK2)	remaining binding at 1 µM (FES)	remaining binding at 1 µM (ABL1-nonphosphorylated)	remaining binding at 1 µM (RET)	remaining binding at 1 µM (PRKG1)	remaining binding at 1 µM (RAF1)	remaining binding at 1 µM (ARK5)	remaining binding at 1 µM (PAK1)	remaining binding at 1 µM (CAMK1G)	remaining binding at 1 µM (CSNK1A1L)	remaining binding at 1 µM (MEK3)
Clc1cc(NCC2CC2)c2ncc(-c3ccc4[nH]ncc4c3)n2n1 [compound 2, 6-Chloro-N-(cyclopropylmethyl)-3-(1H-indazol-5-yl)imidazo[1,2-b]pyridazin-8-amine]	73%	87%	76%	100%	84%	99%	99%	98%	76%	100%	87%
O=C(CN1CCOCC1)N[C@H]1CC[C@H](Nc2cc(Cl)nn3c(-c4ccc5[nH]ncc5c4)cnc23)CC1 [compound 26]	97%	88%	44%	100%	32%	100%	100%	99%	51%	88%	100%
CN1CCC(CNc2cc(Cl)nn3c(-c4cc5nc(Nc6ccccc6)[nH]c5cc4F)cnc23)CC1 [compound 31, 6-Chloro-3-(6-fluoro-2-(phenylamino)-1H-benzo[d]imidazol-5-yl)-N-((1-methylpiperidin-4-yl)methyl)imidazo[1,2-b]pyridazin-8-amine]	100%	96%	58%	96%	83%	100%	100%	89%	100%	100%	88%
